“Also recorded” adds a separate entry of the source. Where two headings read alike, the source gives them in different places.
How the values were obtained:
TNF-α = TNF-α levels in PBMC under LPS stimulation (ELISA); type: cell-based, human; conditions: for Percentage TNF-α levels compared to 100% untreated cells under LPS stimulation: PBMC; for concentration of TNF-α in LPS stimulated cells: text summary of Table 2, concentration not stated
Experimental: 1) Isolation, Culture and Treatment of Peripheral Blood Mononuclear Cells (PBMC) Blood was collected in 6 ml vacutainers (green cap). Blood was processed within 2 h of collection. Materials used: Non-coagulated blood; FCS; RPMI-1640 media supplemented with L-Gln and P/S; PBS; sterile tips and pipettes; Sterile 15 ml Falcon; Sterile V-bottom 96-well plates with lids; Neubauer chamber; Trypan Blue solution; 70% IPA solution; Accuspin-Histopaque tubes (Sigma, A7054) Procedure: • 1. Dilute samples 1:1 in sterile PBS; • 2. Add 30 ml of diluted blood into an Accuspin-Histopaque tube (Sigma, A7054); • 3. Centrifuge at 800 rcf 15min at room temperature (RT); • 4. After centrifugation, the red blood cells will remain at the bottom below the frit. The monocytes (PBMC) will be present on a layer above the frit, with the plasma on top; • 5. Collect the PBMC layer with a pipette into a fresh 15 ml Falcon tube and top up to 15 ml of PBS; • 6. Centrifuge at 250 rcf 10 min at RT; • 7. Discard the supernatant, flick the pellet and add another 10 ml of PBS; • 8. Centrifuge at 250 rcf 10 min at RT; • 9. Repeat steps 7 and 8; • 10. […] Count cells and make a 4×10^6 cell/ml suspension in complete medium. Add 100 μl of cell suspension per well in a V-bottom 96-well plate. Then add 50 μl of stimulant or vehicle in complete media, and 50 μl of drug or vehicle in complete media. Incubate the cells for 24 h at 37° C. 5% CO2; • 12. After incubation, take 60 μl of cell supernatant to measure IFNγ and TNFα by ELISA (OptEIA human IFNγ, cat No. 555142 and human TNF, Cat No. 555212) following manufacturer's instructions (BD Biosciences); The two mitogens that the inventors used to stimulate lymphocytes, and therefore assess immune function, were lipopolysaccharide (LPS) and Concanavalin A (Con A). LPS acts on B cells but not T cells, whereas Con A acts on T cells but not B cells. The effects of two embodiments of the compound represented by formula I, i.e. dobutamine (referred to in the tables as BC1021) and ritodrine (BC1023), on the levels of IFN-γ and TNF-α were investigated in LPS and Con A stimulated assays. Peripheral Blood Mononuclear Cells (PMBC) were independently administered with each mitogen, LPS or Con A, and then treated with either dobutamine or ritodrine. Control experiments were conducted in which no LPS or Con A was added, such that any effect on the levels of IFN-γ and TNF-α could be directly attributed to the presence of the test compound, dobutamine or ritodrine. The values in the Tables are expressed as the percentage value of the LPS only control. […] Standard deviation values (s.d.) are given underneath each value of expressed IFN-γ levels.

[1] = system: Influenza A/PR/8/34 (H1N1 virus); experiment: In vivo mouse influenza challenge, dobutamine and ritodrine intra-peritoneal; conditions: H1N1-infected mice; for Sum Total Morbidity: FIG. 3
Experimental: 5) In Vivo Mouse Studies Using Dobutamine
Protocol: Fifty (50) C57BL/6 female mice (6-7 weeks old), were divided into […] experimental groups containing ten (10) animals each. On day 1, animals received an intranasal lethal dose (50 μl total, 25 μl nostril) of Influenza A/PR/8/34 under halothane induced anesthesia. On Day 3, animals received one intra-peritoneal injection (100-150 μl) of the test compound. On Day 4 or 5, all animals still alive received a second intra-peritoneal injection (100-150 μl) of the test compound.
All animals were assessed daily for morbidity, weight loss and survival from Day 1 until at least Day 6. Morbidity variables (i.e. Body Condition, Posture, Activity, Piloerection, Respiration, Vocalisation, Ataxia and Oculo/Nasal Discharges) were recorded according to the following scale of severity: Normal (0), Mild (1), Laboured (2) and Severe/Cull-point (3).
Using standard techniques as described above, mice were infected with a H1N1 virus which was allowed to become established in each of the subjects. Each test mouse was then treated with dobutamine (BC1021) either with a single dose on day 3 after infection with the virus, or as two doses, one on day 3 and one on day 4 after infection. In the control mice, no dobutamine was administered. The weight loss of both treated and untreated mice was then determined.
The inventors also investigated the effects of dobutamine (single and double doses) as well as ritodrine (single and double doses) on the Sum Total Morbidity of the tested mice. Referring to FIG. 3, there are shown the data of these experiments. The value of Sum Total Morbidity corresponds to a confidence value of the general “wellness” of the mice, and takes into account the quality of the fur and grooming of the mice, and whether or not the mice are able to feed and walk. Measurement of Morbidity values will be known to the skilled technician.

Con A stimulated cells [2] = conditions: for Percentage cell survival compared to 100% untreated cells under Con A stimulation: human
Con A stimulated cells [3] = experiment: Percentage cell survival of Con A stimulated cells; conditions: for Percentage cell survival compared to 100% untreated cells under Con A stimulation: compound only (no Con A)
[4] = two doses on days 3 and 4 (Groups C and E)

With CC(NCCc1ccc(O)cc1)C(O)c1ccc(O)cc1 (stereo not drawn) [BC1023, ritodrine] the “Percentage TNF-α levels compared to 100% untreated cells under LPS stimulation” value (TNF-α; + LPS, compound 1 μM, 24 h) was 62.12%, the “Percentage TNF-α levels compared to 100% untreated cells under LPS stimulation” value (TNF-α; + LPS, compound 10 μM, 24 h) was 85.01% and the “Percentage TNF-α levels compared to 100% untreated cells under LPS stimulation” value (TNF-α; + LPS, compound 100 μM, 24 h) was 85.74%. For the same compound, the “Percentage TNF-α levels compared to 100% untreated cells under LPS stimulation” value (TNF-α; compound only (no LPS), 1 μM) was −29.75%, the “Percentage TNF-α levels compared to 100% untreated cells under LPS stimulation” value (TNF-α; compound only (no LPS), 10 μM) was 0.74% and the “Percentage TNF-α levels compared to 100% untreated cells under LPS stimulation” value (TNF-α; compound only (no LPS), 100 μM) was −56.57%. For the same compound, the “concentration of TNF-α in LPS stimulated cells” value (TNF-α) was “decreased”, the “Sum Total Morbidity” value ([1]; all doses, single or double) was “improvement of the morbidity value” and the “Sum Total Morbidity” value [1, 4] was “the most improvements”. The “percentage cell survival compared to the untreated controls” value (Con A stimulated cells [2]) was “higher”, the “Percentage cell survival compared to 100% untreated cells under Con A stimulation” value (Con A stimulated cells [2]; 1 μM) was 78.69% and the “Percentage cell survival compared to 100% untreated cells under Con A stimulation” value (Con A stimulated cells [2]; 10 μM) was 75.25%. The “Percentage cell survival compared to 100% untreated cells under Con A stimulation” value (Con A stimulated cells [2]; 100 μM) was 72.56%.
For CC(CCc1ccc(O)cc1)NCCc1ccc(O)c(O)c1 (stereo not drawn) [BC1021, dobutamine], the “Percentage TNF-α levels compared to 100% untreated cells under LPS stimulation” value (TNF-α; + LPS, compound 1 μM, 24 h) was 91.20%, the “Percentage TNF-α levels compared to 100% untreated cells under LPS stimulation” value (TNF-α; + LPS, compound 10 μM, 24 h) was 84.79% and the “Percentage TNF-α levels compared to 100% untreated cells under LPS stimulation” value (TNF-α; + LPS, compound 100 μM, 24 h) was 81.41%. For the same compound, the “Percentage TNF-α levels compared to 100% untreated cells under LPS stimulation” value (TNF-α; compound only (no LPS), 1 μM) was −80.18%, the “Percentage TNF-α levels compared to 100% untreated cells under LPS stimulation” value (TNF-α; compound only (no LPS), 10 μM) was −145.07% and the “Percentage TNF-α levels compared to 100% untreated cells under LPS stimulation” value (TNF-α; compound only (no LPS), 100 μM) was −151.15%. The “concentration of TNF-α in LPS stimulated cells” value (TNF-α) was “decreased”, the “Sum Total Morbidity” value ([1]; all doses, single or double) was “improvement of the morbidity value” and the “effect on weight loss” value ([1]; single dose on day 3, FIG. 1) was “little effect”. The “percentage survival of mice” value ([1]; single dose on day 3, FIG. 2) was “little effect”, the “Sum Total Morbidity” value [1, 4] was “the most improvements; also recorded: the most effective” and the “lower reduction in weight loss than the control mice” value ([1]; two doses on days 3 and 4 after infection, FIG. 1) was no less than 10%. For the same compound, the “percentage survival of mice” value ([1]; two doses, day 3 and day 4, FIG. 2) was “higher survival rate than the control”, the “Percentage cell survival compared to 100% untreated cells under Con A stimulation” value (Con A stimulated cells [3]; 1 μM) was 76.89% and the “Percentage cell survival compared to 100% untreated cells under Con A stimulation” value (Con A stimulated cells [3]; 10 μM) was 69.80%. The “Percentage cell survival compared to 100% untreated cells under Con A stimulation” value (Con A stimulated cells [3]; 100 μM) was 44.95% and the “percentage cell survival compared to the untreated controls” value (Con A stimulated cells [3]; text summary of Table 5, all doses) was “higher”.

Source: patent US20120283334A1, “Treatment of Viral Infections” (Biocopea, Ltd., priority 2009, published 2012)
